Measured values reported in patent US10308667B2, “Oxadiazolopyridine derivatives for use as ghrelin O-acyl transferase (GOAT) inhibitors” (Boehringer Ingelheim International GmbH, priority 2016, dated 2019).

These compounds were tested against human GOAT (Homo sapiens (Human), UniProt Q96T53) (assay: Determination of hGOAT Activity in HEK293 Cells after Incubation with Test Compound). Conditions: HEK293 cells stably transfected with preproghrelin and human GOAT; octanoate-BSA 100 μM; acyl-ghrelin in medium by ELISA after 5 hours.
Format: cell-based
How it was run: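 HEK293 cells stably expressing preproghrelin and human GOAT were given serum-free medium with 100 μM octanoate-BSA plus compound (0.3% DMSO) for 5 h. Acyl-ghrelin in the medium was quantified by ELISA (A405, standard curve) as % of vehicle. IC50 was fitted from 8 concentrations.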

Sequence of human GOAT (Q96T53 whole entry): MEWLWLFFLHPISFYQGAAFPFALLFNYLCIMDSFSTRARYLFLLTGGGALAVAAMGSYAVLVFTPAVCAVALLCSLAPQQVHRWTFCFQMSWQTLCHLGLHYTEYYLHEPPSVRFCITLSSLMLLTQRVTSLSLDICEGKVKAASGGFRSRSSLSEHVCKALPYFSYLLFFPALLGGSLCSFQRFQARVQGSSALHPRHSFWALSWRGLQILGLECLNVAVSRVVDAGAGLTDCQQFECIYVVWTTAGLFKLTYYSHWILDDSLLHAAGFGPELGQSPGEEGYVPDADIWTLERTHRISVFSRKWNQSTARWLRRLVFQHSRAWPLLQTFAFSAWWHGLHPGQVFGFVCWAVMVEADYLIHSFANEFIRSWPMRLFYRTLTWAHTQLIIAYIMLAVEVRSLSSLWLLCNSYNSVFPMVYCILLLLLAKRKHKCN

Row | IC50 [nM] | Compound
1 | 0.074 | Cc1nc2nonc2c(N)c1Cc1ccc(Br)c(OCCCF)n1 [Example 101, 6-[5-Bromo-6-(3-fluoro-propoxy)-pyridin-2-ylmethyl]-5-methyl-[1,2,5]oxadiazolo[3,4-b]pyridin-7-ylamine]
2 | 0.074 | CSc1nc(Cc2c(C)nc3nonc3c2N)ccc1Br [Example 102, 6-(5-Bromo-6-methylsulfanyl-pyridin-2-ylmethyl)-5-methyl-[1,2,5]oxadiazolo[3,4-b]pyridin-7-ylamine]
3 | 0.086 | Cc1nc2nonc2c(N)c1Cc1ccc(C#N)c(OCC(C)(F)F)n1 [Example 103, 6-(7-Amino-5-methyl-[1,2,5]oxadiazolo[3,4-b]pyridin-6-ylmethyl)-2-(2,2-difluoro-propoxy)-nicotinonitrile]
4 | 0.98 | Cc1nc2nonc2c(N)c1Cc1ccc(C#N)c(OC2COC2)n1 [Example 104, 6-(7-Amino-5-methyl-[1,2,5]oxadiazolo[3,4-b]pyridin-6-ylmethyl)-2-(oxetan-3-yloxy)-nicotinonitrile]
5 | 0.12 | Cc1nc2nonc2c(N)c1Cc1ccc(C#N)c(OCC(C)(C)O)n1 [Example 105, 6-(7-Amino-5-methyl-[1,2,5]oxadiazolo[3,4-b]pyridin-6-ylmethyl)-2-(2-hydroxy-2-methyl-propoxy)-nicotinonitrile]
6 | 0.11 | Cc1nc2nonc2c(N)c1Cc1ccc(C#N)c(OCCF)n1 [Example 106, 6-(7-Amino-5-methyl-[1,2,5]oxadiazolo[3,4-b]pyridin-6-ylmethyl)-2-(2-fluoro-ethoxy)-nicotinonitrile]
7 | 0.33 | Cc1nc2nonc2c(N)c1Cc1ccc(C#N)c(OCC(F)(F)F)n1 [Example 107, 6-(7-Amino-5-methyl-[1,2,5]oxadiazolo[3,4-b]pyridin-6-ylmethyl)-2-(2,2,2-trifluoro-ethoxy)-nicotinonitrile]
8 | 0.026 | Cc1nc2nonc2c(N)c1Cc1ccc(C#N)c(OCCCF)n1 [Example 108, 6-(7-Amino-5-methyl-[1,2,5]oxadiazolo[3,4-b]pyridin-6-ylmethyl)-2-(3-fluoro-propoxy)-nicotinonitrile]
9 | 0.093 | Cc1nc2nonc2c(N)c1Cc1ccc(C#N)c(OCC(F)F)n1 [Example 109, 6-(7-Amino-5-methyl-[1,2,5]oxadiazolo[3,4-b]pyridin-6-ylmethyl)-2-(2,2-difluoro-ethoxy)-nicotinonitrile]
10 | 0.28 | Cc1nc2nonc2c(N)c1Cc1ccc(C#N)c(OCCC(F)(F)F)n1 [Example 110, 6-(7-Amino-5-methyl-[1,2,5]oxadiazolo[3,4-b]pyridin-6-ylmethyl)-2-(3,3,3-trifluoro-propoxy)-nicotinonitrile]
11 | 0.1 | Cc1nc2nonc2c(N)c1Cc1ccc(C#N)c(OCC2(C)COC2)n1 [Example 111, 6-(7-Amino-5-methyl-[1,2,5]oxadiazolo[3,4-b]pyridin-6-ylmethyl)-2-(3-methyl-oxetan-3-ylmethoxy)-nicotinonitrile]
12 | 0.22 | Cc1nc2nonc2c(N)c1Cc1ccc(C#N)c(OCC2CC2(F)F)n1 (stereo not drawn) [Example 112, 6-(7-Amino-5-methyl-[1,2,5]oxadiazolo[3,4-b]pyridin-6-ylmethyl)-2-(2,2-difluoro-cyclopropylmethoxy)-nicotinonitrile]
13 | 31 | Cc1nc2nonc2c(N)c1Cc1ccc(C#N)c(=O)[nH]1 [Example 113, 6-(7-Amino-5-methyl-[1,2,5]oxadiazolo[3,4-b]pyridin-6-ylmethyl)-2-oxo-1,2-dihydro-pyridine-3-carbonitrile]
14 | 3.9 | Cc1nc2nonc2c(N)c1Cc1ccc(OCC(F)(F)F)c(C#N)n1 [Example 114, 6-(7-Amino-5-methyl-[1,2,5]oxadiazolo[3,4-b]pyridin-6-ylmethyl)-3-(2,2,2-trifluoro-ethoxy)-pyridine-2-carbonitrile]
15 | 1.2 | Cc1nc2nonc2c(N)c1Cc1ccc(OCCF)c(C#N)n1 [Example 115, 6-(7-Amino-5-methyl-[1,2,5]oxadiazolo[3,4-b]pyridin-6-ylmethyl)-3-(2-fluoro-ethoxy)-pyridine-2-carbonitrile]
16 | 0.83 | Cc1nc2nonc2c(N)c1Cc1ccc(OCC(F)F)c(C#N)n1 [Example 116, 6-(7-Amino-5-methyl-[1,2,5]oxadiazolo[3,4-b]pyridin-6-ylmethyl)-3-(2,2-difluoro-ethoxy)-pyridine-2-carbonitrile]
17 | 0.19 | Cc1nc2nonc2c(N)c1Cc1ccc(Oc2ccnn2C)c(C#N)n1 [Example 117, 6-(7-Amino-5-methyl-[1,2,5]oxadiazolo[3,4-b]pyridin-6-ylmethyl)-3-(2-methyl-2H-pyrazol-3-yloxy)-pyridine-2-carbonitrile]
18 | 0.085 | Cc1nc2nonc2c(N)c1Cc1ccc(Oc2ccccc2)c(C#N)n1 [Example 118, 6-(7-Amino-5-methyl-[1,2,5]oxadiazolo[3,4-b]pyridin-6-ylmethyl)-3-phenoxy-pyridine-2-carbonitrile]

Row | IC50 [nM] | Compound
19 | 0.091 | Cc1nc2nonc2c(N)c1Cc1ccc(OC(F)F)c(N)n1 [Example 119, 6-(6-Amino-5-difluoromethoxy-pyridin-2-ylmethyl)-5-methyl-[1,2,5]oxadiazolo[3,4-b]pyridin-7-ylamine]
20 | 4.3 | Cc1nc2nonc2c(N)c1Cc1ccc(OC(F)F)c(=O)[nH]1 [Example 120, 6-(7-Amino-5-methyl-[1,2,5]oxadiazolo[3,4-b]pyridin-6-ylmethyl)-3-difluoromethoxy-1H-pyridin-2-one]
21 | 0.045 | Cc1nc2nonc2c(N)c1Cc1ccc(Br)c(NCC2(C)COC2)n1 [Example 121, 6-{5-Bromo-6-[(3-methyl-oxetan-3-ylmethyl)-amino]-pyridin-2-ylmethyl}-5-methyl-[1,2,5]oxadiazolo[3,4-b]pyridin-7-ylamine]
22 | 0.033 | Cc1nc2nonc2c(N)c1Cc1ccc(Br)c(N2CC(C)(O)C2)n1 [Example 122, 1-[6-(7-Amino-5-methyl-[1,2,5]oxadiazolo[3,4-b]pyridin-6-ylmethyl)-3-bromo-pyridin-2-yl]-3-methyl-azetidin-3-ol]
23 | 0.026 | Cc1nc2nonc2c(N)c1Cc1ccc(Br)c(N2CCOCC2)n1 [Example 123, 6-(5-Bromo-6-morpholin-4-yl-pyridin-2-ylmethyl)-5-methyl-[1,2,5]oxadiazolo[3,4-b]pyridin-7-ylamine]
24 | 0.056 | Cc1nc2nonc2c(N)c1Cc1ccc(Br)c(NCC(C)(C)C(N)=O)n1 [Example 124, 3-[6-(7-Amino-5-methyl-[1,2,5]oxadiazolo[3,4-b]pyridin-6-ylmethyl)-3-bromo-pyridin-2-ylamino]-2,2-di methyl-propionamide]
25 | 0.038 | Cc1nc2nonc2c(N)c1Cc1ccc(Br)c(NC2CC2)n1 [Example 125, 6-(5-Bromo-6-cyclopropylamino-pyridin-2-ylmethyl)-5-methyl-[1,2,5]oxadiazolo[3,4-b]pyridin-7-ylamine]
26 | 0.17 | Cc1nc2nonc2c(N)c1Cc1ccc(Br)c(NCC2(C)CCOC2)n1 (stereo not drawn) [Example 126, 6-{5-Bromo-6-[(3-methyl-tetrahydro-furan-3-ylmethyl)-amino]-pyridin-2-ylmethyl}-5-methyl-[1,2,5]oxadiazolo[3,4-b]pyridin-7-ylamine]
27 | 0.1 | Cc1nc2nonc2c(N)c1Cc1ccc(Br)c(NCC(C)(C)C#N)n1 [Example 127, 3-[6-(7-Amino-5-methyl-[1,2,5]oxadiazolo[3,4-b]pyridin-6-ylmethyl)-3-bromo-pyridin-2-ylamino]-2,2-di methyl-propionitrile]
28 | 0.096 | Cc1nc2nonc2c(N)c1Cc1ccc(Br)c(NC2CC(F)(F)C2)n1 [Example 128, 6-[5-Bromo-6-(3,3-difluoro-cyclobutylamino)-pyridin-2-ylmethyl]-5-methyl-[1,2,5]oxadiazolo[3,4-b]pyridin-7-ylamine]
29 | 0.2 | Cc1nc2nonc2c(N)c1Cc1ccc(C#N)c(NCC2(C)COC2)n1 [Example 135, 6-(7-Amino-5-methyl-[1,2,5]oxadiazolo[3,4-b]pyridin-6-ylmethyl)-2-[(3-methyl-oxetan-3-ylmethyl)-amino]-nicotinonitrile]
30 | 0.033 | Cc1nc2nonc2c(N)c1Cc1ccc(C#N)c(N2CCOCC2)n1 [Example 136, 6-(7-Amino-5-methyl-[1,2,5]oxadiazolo[3,4-b]pyridin-6-ylmethyl)-2-morpholin-4-yl-nicotinonitrile]
31 | 0.054 | Cc1nc2nonc2c(N)c1Cc1ccc(C#N)c(N2CC3(COC3)C2)n1 [Example 137, 6-(7-Amino-5-methyl-[1,2,5]oxadiazolo[3,4-b]pyridin-6-ylmethyl)-2-(2-oxa-6-aza-spiro[3.3]hept-6-yl)-nicotinonitrile]
32 | 0.075 | Cc1nc2nonc2c(N)c1Cc1ccc(C#N)c(N2CC(C)(O)C2)n1 [Example 138, 6-(7-Amino-5-methyl-[1,2,5]oxadiazolo[3,4-b]pyridin-6-ylmethyl)-2-(3-hydroxy-3-methyl-azetidin-1-yl)-nicotinonitrile]
33 | 0.02 | Cc1nc2nonc2c(N)c1Cc1ccc(C#N)c(NC2CC2)n1 [Example 139, 6-(7-Amino-5-methyl-[1,2,5]oxadiazolo[3,4-b]pyridin-6-ylmethyl)-2-cyclopropylamino-nicotinonitrile]
34 | 0.15 | Cc1nc2nonc2c(N)c1Cc1ccc(C#N)c(NC2CC(F)(F)C2)n1 [Example 140, 6-(7-Amino-5-methyl-[1,2,5]oxadiazolo[3,4-b]pyridin-6-ylmethyl)-2-(3,3-difluoro-cyclobutylamino)-nicotinonitrile]
35 | 0.14 | Cc1nc2nonc2c(N)c1Cc1ccc(C#N)c(N2CCNC(=O)CC2)n1 [Example 141, 6-(7-Amino-5-methyl-[1,2,5]oxadiazolo[3,4-b]pyridin-6-ylmethyl)-2-(5-oxo-[1,4]diazepan-1-yl)-nicotinonitrile]
36 | 0.027 | Cc1nc2nonc2c(N)c1Cc1ccc(C#N)c(N2CC(F)(F)C2)n1 [Example 142, 6-(7-Amino-5-methyl-[1,2,5]oxadiazolo[3,4-b]pyridin-6-ylmethyl)-2-(3,3-difluoro-azetidin-1-yl)-nicotinonitrile]
